Test results: PubChem BioAssay AID1996
In brackets after ≈: the same amount, converted by molar mass.

Details: buffer; pH 7.4; 200.0 µM

| Compound | solubility kinetic |
| --- | --- |
| CCCCNC(=O)c1ccc2c(c1)N(C)C(=O)c1ccccc1S2 | 5.3 µg/mL (≈ 15.6 µM) |
| O=C(COC(=O)/C=C/c1ccc(Cl)c(Cl)c1)NC1CC1 | 4.4 µg/mL (≈ 14 µM) |
| COc1ccc(Cl)cc1NC(=O)C1(c2cccs2)CCOCC1 | 21.7 µg/mL (≈ 61.7 µM) |
| Cc1cc(C(=O)NCC2CCCO2)sc1C (centres undefined) | > 35.9 µg/mL |
| Cn1c(NC(=O)c2ccc(F)cc2)c(-c2ccccn2)c(=O)c2ccccc21 | 6.2 µg/mL (≈ 16.6 µM) |
| CCc1ccc(S(=O)(=O)Nc2ccc(C)c(NS(C)(=O)=O)c2)cc1 | 48.6 µg/mL (≈ 132 µM) |
| c1ccc(NCc2ccncc2)cc1 | > 27.6 µg/mL |
| CC1=C(C#N)C2(O)C(=O)c3ccccc3C2(O)N1 (centres undefined) | > 36.3 µg/mL |
| CC(=O)c1cnc(-c2ccccn2)s1 | 28.3 µg/mL (≈ 139 µM) |
| COc1nc(NC2CCCCC2)nc(NC(C)(C)C)n1 | 20.7 µg/mL (≈ 74.1 µM) |
| Cc1nc2ccccc2c2oc(C(=O)N3CCCC(C)C3)cc12 (centres undefined) | 44.6 µg/mL (≈ 145 µM) |
| O=C(/C=C/c1c(F)cccc1Cl)N1CCOCC1 | 39.8 µg/mL (≈ 148 µM) |
| CC(=O)Nc1ccc(-c2cn3c(n2)SCC3)cc1 | 34.4 µg/mL (≈ 133 µM) |
| O=C(C1CCN(S(=O)(=O)c2cccs2)CC1)N1CCCCC1 | > 51.4 µg/mL |
| CCc1ccc(S(=O)(=O)NCc2csc(C)n2)cc1 | > 44.5 µg/mL |
| O=C(COc1ccc(F)cc1Br)NCC1(N2CCCCC2)CCCCC1 | 55 µg/mL (≈ 129 µM) |
| Cc1sc2ncn(-c3ccccc3)c(=O)c2c1C | 5.6 µg/mL (≈ 21.8 µM) |
| O=C(Nc1ccc(O)cc1)/C(=C\C=C\c1ccccc1)NC(=O)c1ccccc1 | 14.9 µg/mL (≈ 38.8 µM) |
| CCn1c(C)c(C(=O)c2ccccc2)c(C#N)c1C(=O)O | 36.6 µg/mL (≈ 130 µM) |
| CCCCN1CC2=C(C1=O)C(c1ccc(O)cc1)NC(=O)N2C (centres undefined) | > 47.3 µg/mL |

| Compound | solubility kinetic |
| --- | --- |
| Cc1ccc(NC(=O)Nc2ccc(F)cc2F)c(OC(F)F)c1 | < 0.4 µg/mL |
| CSc1cc(-c2ccncc2)nc(-c2ccc(Cl)cc2)c1 | < 0.3 µg/mL |
| CC(=O)c1ccc(Sc2ccccc2N)c([N+](=O)[O-])c1 | 19.6 µg/mL (≈ 68 µM) |
| Cc1nc(-c2cc(-c3ccc(Cl)cc3)no2)cs1 | < 0.3 µg/mL |
| Cc1cc(NC(=O)c2cc(-c3ccncc3)nc3ccccc23)ccc1Br | 1.2 µg/mL (≈ 2.87 µM) |
| Oc1ccc(-c2cnc(-c3ccc(O)cc3)nc2)cc1 | 1.7 µg/mL (≈ 6.43 µM) |
| c1ccc(Nc2nc(NCCN3CCOCC3)nc(Nc3ccccc3)n2)cc1 | 36 µg/mL (≈ 92 µM) |
| COc1ccc(N2C(=O)C(CN3CCCCC3)C2c2ccccc2)cc1 (centres undefined) | 51.7 µg/mL (≈ 148 µM) |
| Nc1ccc(-c2ccc(N)c([N+](=O)[O-])c2)cc1[N+](=O)[O-] | 0.2 µg/mL (≈ 0.729 µM) |
| Cc1sc(N)nc1-c1ccc(Oc2ccccc2)cc1 | 2.1 µg/mL (≈ 7.44 µM) |
| Cc1cccc(OCC2CCCN(Cc3nc(C4CC4)no3)C2)c1 (centres undefined) | 12.8 µg/mL (≈ 39.1 µM) |
| CCN(CC)C(=O)c1ccccc1NC(=O)c1ccccc1C | > 46.6 µg/mL |
| COc1ccc(CCNC(=O)COC(=O)c2ncc(Cl)c(Cl)c2Cl)cc1OC | > 67.2 µg/mL |
| Cc1ccc(Cn2ccsc2=NC(=O)COC(=O)c2ccc(O)cc2O)cc1 | 2.7 µg/mL (≈ 6.78 µM) |
| CC(C)(C)N(Cc1ccccc1)C(=O)COC(=O)C1CC1 | > 43.4 µg/mL |
| CC(=O)N(C(C)=O)c1c(N2CCCC2)c2ccccc2oc1=O | 46.1 µg/mL (≈ 147 µM) |
| O=C(/C=C/c1ccccc1)NCc1ccc2c(c1)OCO2 | 2.5 µg/mL (≈ 8.89 µM) |
| CNC1(C)[C@H]2CC[C@H](C2)C1(C)C.Cl (some centres undefined) | > 30.6 µg/mL |
| O=C(O)c1c2c(nc3ccccc13)/C(=C/c1cccc([N+](=O)[O-])c1)CCC2 | > 54.1 µg/mL |
| COc1ccc(NC(=O)Nc2nc3ccccc3s2)cc1 | < 0.2 µg/mL |

| Compound | solubility kinetic |
| --- | --- |
| C/C(=N\NC(=O)c1ccncc1)c1cccs1 | > 36.8 µg/mL |
| O=C(Nc1ccc(C(=O)c2ccc(C(=O)O)c(C(=O)O)c2)cc1)c1ccccc1 | 57.4 µg/mL (≈ 147 µM) |
| CCCCn1cc2c(c1-c1cccc(C)c1)c(=O)n(C)c(=O)n2C | 14 µg/mL (≈ 43 µM) |
| Cn1c(Oc2ccc(F)cc2F)c(C=O)c2ccccc21 | 16.6 µg/mL (≈ 57.8 µM) |
| CCc1ccc(NC(=O)C(C)OC(=O)/C=C/c2ccc(O)c(OC)c2)cc1 (centres undefined) | 4.1 µg/mL (≈ 11.1 µM) |
| O=C(OCC(=O)c1ccccc1Br)c1ccncc1 | > 48 µg/mL |
| CC(NC(=O)c1c(O)c2ccccc2n(C)c1=O)c1ccccc1 (centres undefined) | < 0.3 µg/mL |
| O=C(COC(=O)CNC(=O)c1ccccc1)NC(=O)NC1CCCCC1 | > 54.2 µg/mL |
| CC(C)Oc1ccc(N2CC(C(=O)NC3=NCCS3)CC2=O)cc1 (centres undefined) | > 52.1 µg/mL |
| O=C(Nc1ccc(S(=O)(=O)N2CCCCC2)cc1)C1CCCCC1 | 13.5 µg/mL (≈ 38.5 µM) |
| CC(NC(=O)c1ccccc1[N+](=O)[O-])C1CC2CCC1C2 (centres undefined) | 35.2 µg/mL (≈ 122 µM) |
| O=C(COC(=O)[C@H](Cc1ccccc1)NC(=O)c1ccco1)Nc1ccccc1 | > 58.9 µg/mL |
| Cc1cc(NC(=O)Cc2cc(F)cc(F)c2)no1 | 7.5 µg/mL (≈ 29.7 µM) |
| Cc1ccc(CNc2cc(C(=O)O)ccc2C)s1 | > 39.2 µg/mL |
| CCOc1ccccc1NC(=O)CN1CCCCCC1.Cl | 32.9 µg/mL |
| CC(=O)c1c(COC(=O)c2ccc(C)cc2)nc2ccccc2[n+]1[O-] | 2.7 µg/mL (≈ 8.03 µM) |
| COc1ccccc1CNC(=O)Cc1ccc(OC)c(OC)c1 | > 47.3 µg/mL |
| CC1CCc2cccc3c(O)cc(=O)n1c23 (centres undefined) | > 32.3 µg/mL |
| COc1ccccc1OCC(=O)Nc1sc2c(c1C(N)=O)CCC2 | 4.6 µg/mL (≈ 13.3 µM) |
